Legend:
[1] = tested on: serine/threonine kinase MAPK (mitogen-activated protein kinase); conditions: cited from earlier work
MEK 1/2 = conditions: cited from earlier work
FLT 3/4 = conditions: cited from earlier work
VEGFR 2 = VEGFR 2 (Homo sapiens, UniProt P35968); conditions: cited from earlier work
FLT1/VEGFR1 = FLT1/VEGFR1 (Homo sapiens, UniProt P17948); assay: Assay for inhibitory activity against kinase; conditions: read-out: % Inhibition (1 uM)
MV4-11 cell line = assay: Suppressive activity against growth of AML cells (MTT assay); assay type: cell-based; conditions: Homo sapiens, MV4-11 cancer cell line, 48 hrs treatment
Method: The MV4-11 cell line was grown at 37° C. in RPMI medium [Gibco, New York, USA/10% FBS (Gibco), containing 1% penicillin/streptomycin (Gibco)] in a 5% CO2 atmosphere. The grown MV4-11 cell line was withdrawn into PBS, seeded at a density of 3×10^4 cells/well into 96-well plates, and cultured at 37° C. for 24 hrs in a 5% CO2 atmosphere. Various concentrations of the compound (8 points) were prepared by serial dilution in 10 mM DMSO, and the MV4-11 cell line was treated with various concentrations of the compound for 48 hrs. To assess cell viability, 3-(4,5-dimethylthiazol-2-yl)-2,5-diphenyl tetrazolium bromide (MTT) assay (CellTiter 96 Assay, Promega) was performed.
Briefly, the dye was added in an amount of 15 μL to each well and incubated for 2 hrs. Then, each well was incubated with 100 μL of a stop solution for 24 hrs, followed by reading absorbance at 590 nm on EnVision2103. GI50 was calculated using GraphPad Prism 4.0.

PDGFRb = PDGFRb (Homo sapiens, UniProt P09619); assay: Assay for inhibitory activity against kinase; conditions: read-out: % Inhibition (1 uM)
PDGFRb, sequence (P09619 33-1106): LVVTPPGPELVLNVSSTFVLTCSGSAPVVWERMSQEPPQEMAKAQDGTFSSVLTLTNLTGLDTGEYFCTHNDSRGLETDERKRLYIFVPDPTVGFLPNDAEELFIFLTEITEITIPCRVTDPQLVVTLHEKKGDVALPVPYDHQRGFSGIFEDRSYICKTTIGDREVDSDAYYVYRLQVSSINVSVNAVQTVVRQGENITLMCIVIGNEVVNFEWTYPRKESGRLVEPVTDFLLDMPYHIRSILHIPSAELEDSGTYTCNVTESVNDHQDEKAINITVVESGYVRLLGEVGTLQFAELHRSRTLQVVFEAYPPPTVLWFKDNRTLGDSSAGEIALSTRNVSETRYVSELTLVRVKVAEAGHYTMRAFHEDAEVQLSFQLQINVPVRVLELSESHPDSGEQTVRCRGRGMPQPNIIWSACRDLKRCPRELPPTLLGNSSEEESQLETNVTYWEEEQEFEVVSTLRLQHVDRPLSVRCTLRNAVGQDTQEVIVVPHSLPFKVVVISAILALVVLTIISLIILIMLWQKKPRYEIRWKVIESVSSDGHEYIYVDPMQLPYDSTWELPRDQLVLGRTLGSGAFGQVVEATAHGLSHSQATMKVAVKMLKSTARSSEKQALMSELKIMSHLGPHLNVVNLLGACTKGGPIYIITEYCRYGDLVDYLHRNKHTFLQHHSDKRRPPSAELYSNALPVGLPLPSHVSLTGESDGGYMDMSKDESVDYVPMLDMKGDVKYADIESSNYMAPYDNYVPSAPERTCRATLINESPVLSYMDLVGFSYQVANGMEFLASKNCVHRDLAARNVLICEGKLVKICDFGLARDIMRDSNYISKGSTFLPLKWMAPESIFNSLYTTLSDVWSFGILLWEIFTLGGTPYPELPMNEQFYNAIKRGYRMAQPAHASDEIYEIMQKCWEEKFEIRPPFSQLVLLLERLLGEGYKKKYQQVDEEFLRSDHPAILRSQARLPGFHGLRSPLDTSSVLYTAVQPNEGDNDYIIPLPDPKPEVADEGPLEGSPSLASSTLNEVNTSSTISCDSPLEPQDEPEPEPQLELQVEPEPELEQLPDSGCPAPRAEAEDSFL

Molm-14 = assay: Suppressive activity against growth of AML cells (MTT assay); assay type: cell-based; conditions: Homo sapiens; Molm-14 cancer cell line

FLT1/VEGFR1, sequence (P17948 27-1338): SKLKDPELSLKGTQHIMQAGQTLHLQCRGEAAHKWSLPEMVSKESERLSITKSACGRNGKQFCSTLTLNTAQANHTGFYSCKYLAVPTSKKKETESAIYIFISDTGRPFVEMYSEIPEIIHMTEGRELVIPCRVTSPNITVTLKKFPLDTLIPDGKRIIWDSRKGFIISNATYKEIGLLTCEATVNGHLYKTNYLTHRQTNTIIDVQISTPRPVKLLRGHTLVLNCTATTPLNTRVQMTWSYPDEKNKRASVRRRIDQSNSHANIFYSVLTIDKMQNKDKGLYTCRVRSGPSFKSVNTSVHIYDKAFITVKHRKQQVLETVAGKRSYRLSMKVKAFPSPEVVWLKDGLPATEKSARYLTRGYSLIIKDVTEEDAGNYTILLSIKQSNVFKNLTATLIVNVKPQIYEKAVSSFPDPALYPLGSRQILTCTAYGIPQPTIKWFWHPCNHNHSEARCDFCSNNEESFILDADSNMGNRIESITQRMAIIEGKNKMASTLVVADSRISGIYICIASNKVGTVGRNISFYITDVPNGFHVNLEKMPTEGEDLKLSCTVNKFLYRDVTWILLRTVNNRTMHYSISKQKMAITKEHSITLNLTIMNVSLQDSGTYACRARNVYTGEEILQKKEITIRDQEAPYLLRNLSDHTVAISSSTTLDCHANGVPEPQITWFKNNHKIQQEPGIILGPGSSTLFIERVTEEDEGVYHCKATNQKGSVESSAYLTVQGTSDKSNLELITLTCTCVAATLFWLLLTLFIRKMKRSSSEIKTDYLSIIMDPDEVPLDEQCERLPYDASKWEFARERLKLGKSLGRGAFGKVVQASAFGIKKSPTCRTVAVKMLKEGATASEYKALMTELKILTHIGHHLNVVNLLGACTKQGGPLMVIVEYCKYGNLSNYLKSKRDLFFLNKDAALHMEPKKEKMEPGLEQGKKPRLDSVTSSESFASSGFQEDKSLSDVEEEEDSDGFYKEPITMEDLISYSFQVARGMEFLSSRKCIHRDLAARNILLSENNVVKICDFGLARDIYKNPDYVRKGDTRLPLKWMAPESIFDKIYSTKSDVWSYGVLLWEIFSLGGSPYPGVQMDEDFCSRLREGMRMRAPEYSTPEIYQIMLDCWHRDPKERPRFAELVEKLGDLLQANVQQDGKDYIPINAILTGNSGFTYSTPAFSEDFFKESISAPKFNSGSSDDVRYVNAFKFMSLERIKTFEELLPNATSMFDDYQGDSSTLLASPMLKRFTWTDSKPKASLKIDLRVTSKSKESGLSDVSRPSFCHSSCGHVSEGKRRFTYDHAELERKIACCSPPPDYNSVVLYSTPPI
VEGFR 2, sequence (P35968 20-1356, species assumed): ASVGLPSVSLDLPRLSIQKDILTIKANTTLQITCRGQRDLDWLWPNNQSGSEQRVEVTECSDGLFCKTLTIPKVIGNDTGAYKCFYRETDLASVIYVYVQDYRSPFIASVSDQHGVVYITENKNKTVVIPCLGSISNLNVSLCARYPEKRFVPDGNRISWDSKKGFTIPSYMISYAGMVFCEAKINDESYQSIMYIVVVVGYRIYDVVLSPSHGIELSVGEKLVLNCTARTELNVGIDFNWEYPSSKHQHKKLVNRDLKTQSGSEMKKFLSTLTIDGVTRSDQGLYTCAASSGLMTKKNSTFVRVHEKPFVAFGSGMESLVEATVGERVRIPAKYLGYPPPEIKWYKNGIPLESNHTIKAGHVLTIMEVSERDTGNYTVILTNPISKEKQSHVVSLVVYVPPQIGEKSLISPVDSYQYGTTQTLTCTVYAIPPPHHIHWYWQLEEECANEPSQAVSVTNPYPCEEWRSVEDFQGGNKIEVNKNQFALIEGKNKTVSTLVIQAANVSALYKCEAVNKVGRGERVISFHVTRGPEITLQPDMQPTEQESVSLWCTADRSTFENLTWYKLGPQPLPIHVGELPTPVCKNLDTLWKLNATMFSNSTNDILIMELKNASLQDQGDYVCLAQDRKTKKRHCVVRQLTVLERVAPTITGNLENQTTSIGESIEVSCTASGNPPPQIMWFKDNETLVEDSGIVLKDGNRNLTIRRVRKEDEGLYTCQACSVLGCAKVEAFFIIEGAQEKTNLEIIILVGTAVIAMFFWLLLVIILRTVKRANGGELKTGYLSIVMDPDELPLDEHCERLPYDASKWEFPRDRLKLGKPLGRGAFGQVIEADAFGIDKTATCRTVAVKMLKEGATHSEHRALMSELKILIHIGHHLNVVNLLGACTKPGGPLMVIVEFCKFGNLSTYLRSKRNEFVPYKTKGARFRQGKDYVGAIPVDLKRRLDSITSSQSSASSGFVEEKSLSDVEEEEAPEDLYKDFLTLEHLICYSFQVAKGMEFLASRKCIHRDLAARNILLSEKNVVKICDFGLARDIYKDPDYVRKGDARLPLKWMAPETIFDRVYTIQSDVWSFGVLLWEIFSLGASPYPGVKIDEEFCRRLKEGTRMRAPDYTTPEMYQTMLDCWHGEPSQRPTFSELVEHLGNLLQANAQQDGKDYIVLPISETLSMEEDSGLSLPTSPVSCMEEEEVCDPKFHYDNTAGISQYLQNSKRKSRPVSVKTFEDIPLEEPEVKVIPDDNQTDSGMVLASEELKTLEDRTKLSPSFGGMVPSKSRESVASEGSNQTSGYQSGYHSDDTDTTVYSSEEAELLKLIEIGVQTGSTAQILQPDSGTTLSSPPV

SMILES | inhibition of MAPK (mode) [1] | inhibitory activity against MEK 1/2 (MEK 1/2) | inhibitory activity against FLT 3/4 (FLT 3/4) | inhibitory activity against VEGFR 2 (VEGFR 2) | inhibition at 1 µM (FLT1/VEGFR1) [%] | GI50 (MV4-11 cell line) [nM] | inhibition at 1 µM (PDGFRb) [%] | GI50 (Molm-14) [nM]
COc1cc(O)c2c(c1)CCC[C@H](O)[C@H](O)C(=O)/C=C\C[C@H](C)OC2=O [Compound L-783277] | irreversible ATP competitive inhibitor | potent inhibitory activity | potent inhibitory activity | potent inhibitory activity |  |  |  | 
COc1cc(O)c2c(c1)-c1cccc(c1)[C@@H](O)[C@H](O)C(=O)/C=C\C[C@H](C)OC2=O [Cpd. 24] |  |  |  |  | 64 | 30 | 70 | 90
